Results published in US6852733B2, “Sodium-hydrogen exchanger type 1 inhibitor” (Pfizer Inc., priority 2000, dated 2005).

Assays:
[1] = Identification of metabolite in human plasma samples by LC/MS/MS and LC/NMR; format: in vivo; settings: human plasma after intravenous administration of 5-cyclopropyl-1-(quinolin-5-yl)-1H-pyrazole-4-carbonyl]guanidine
Description: It was identified from samples of human plasma obtained after intravenous administration of 5-cyclopropyl-1-(quinolin-5-yl)-1H-pyrazole-4-carbonyl]guanidine to human subjects. The structure of this compound was independently verified by chemical synthesis. In another aspect of this invention [5-cyclopropyl-1-(2-quinolon-5-yl)-1H-pyrazole-4-carbonyl]guanidine may be prepared by administering [5-cyclopropyl-1-(quinolin-5-yl)-1H-pyrazole-4-carbonyl]guanidine to a human and isolating the desired metabolite from the plasma. Alternatively, the metabolite need not be isolated from the human since it is produced in vivo. […]
An aliquot (100 μL or 50 μL) of the concentrated sample was injected onto an LC/MS/MS instrument equipped with a Zorbax Rx-C8 4.6×150 mm column, analyzed on PE Sciex API 2000 or Finnigan LCQ mass spectrometer and monitored by UV detector at 254 nm. […] Under these LC conditions a metabolite was detected at a retention time of 11.8 minutes ([5-cyclopropyl-1-(quinolin-5-yl)-1H-pyrazole-4-carbonyl]guanidine was detected at 13.7 minutes).
The salts were removed from the above concentrated sample by solid phase extraction. […] 50 μL of this sample was injected onto an LC/NMR instrument equipped with a Zorbax Rx-C8 4.6×150 mm column, analyzed on a Bruker 500 MHz NMR spectrometer and monitored by UV detector at 235 nm. […]

[2] = target: human NHE-1 (Homo sapiens, UniProt P19634); test: Measurement of human NHE-1 inhibitory activity (NHE-mediated recovery of intracellular pH, BCECF fluorescence)
Chain of human NHE-1 (P19634 whole entry): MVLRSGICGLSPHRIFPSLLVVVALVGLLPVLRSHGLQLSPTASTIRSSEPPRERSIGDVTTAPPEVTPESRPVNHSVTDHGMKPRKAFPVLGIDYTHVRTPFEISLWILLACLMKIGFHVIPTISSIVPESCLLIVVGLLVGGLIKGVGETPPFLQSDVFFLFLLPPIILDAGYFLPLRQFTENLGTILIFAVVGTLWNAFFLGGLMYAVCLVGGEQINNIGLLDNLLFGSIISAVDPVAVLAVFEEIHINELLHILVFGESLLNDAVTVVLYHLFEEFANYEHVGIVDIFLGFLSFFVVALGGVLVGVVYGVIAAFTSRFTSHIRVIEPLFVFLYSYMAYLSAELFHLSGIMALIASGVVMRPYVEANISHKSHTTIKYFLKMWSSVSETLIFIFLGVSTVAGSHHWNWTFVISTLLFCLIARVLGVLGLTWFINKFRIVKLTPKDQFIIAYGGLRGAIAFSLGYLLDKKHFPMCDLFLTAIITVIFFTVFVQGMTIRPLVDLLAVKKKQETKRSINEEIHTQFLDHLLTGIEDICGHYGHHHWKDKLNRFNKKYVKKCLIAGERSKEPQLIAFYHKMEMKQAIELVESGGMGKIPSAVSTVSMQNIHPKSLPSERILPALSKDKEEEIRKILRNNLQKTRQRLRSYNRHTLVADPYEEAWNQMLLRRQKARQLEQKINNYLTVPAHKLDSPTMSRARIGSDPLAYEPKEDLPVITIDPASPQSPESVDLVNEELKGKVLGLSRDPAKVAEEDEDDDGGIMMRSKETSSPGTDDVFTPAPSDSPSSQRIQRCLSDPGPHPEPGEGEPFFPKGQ
Description: Methodologies for measurement of human NHE-1 activity and inhibitor potency are based on those published by Watson et al., Am. J. Physiol., 24:G229-G238, 1991), where NHE-mediated recovery of intracellular pH is measured following intracellular acidification. Thus, fibroblasts stably expressing human NHE-1 (Counillon, L. et al., Mol. Pharmacol., 44:1041-1045 (1993) are plated onto collagen coated 96 well plates (50,000/well) and grown to confluence in growth media (DMEM high glucose, 10% fetal bovine serum, 50 u/ml penicillin and streptomycin). Confluent plates are incubated for 30 min at 37° C. with the pH sensitive fluorescent probe BCECF (5 μM; Molecular Probes, Eugene, Oreg.). BCECF loaded cells are incubated for 30 min at 37° C. in acid loading media (70 mM choline chloride, 50 mM NHCl4, 5 mM KCl, 1 mM MgCl2, 1.8 mM CaCl2, 5 mM glucose, 10 mM HEPES, pH 7.5), and then placed in a Fluorescent Imaging Plate Reader (Molecular Devices, CA). BCECF fluorescence is monitored using excitation and emission wavelengths of 485 nm and 525 nM, respectively. Intracellular acidification is initiated via rapid replacement of acid loading media with recovery media (120 mM NaCl, 5 mM KCl, 1 mM MgCl2, 1.8 mM CaCl2, 5 mM glucose, 10 mM HEPES, pH 7.5)±test compound, and NHE-mediated recovery of intracellular pH is monitored as the subsequent time-dependent increase BCECF fluorescence.

## N=C(N)NC(=O)c1cnn(-c2cccc3[nH]c(=O)ccc23)c1C1CC1 [Formula I, [5-cyclopropyl-1-(2-quinolon-5-yl)-1H-pyrazole-4-carbonyl]guanidine]
[1]
  metabolite identification in human plasma: human metabolite
[2]
  IC50: 200 nM
